We go through 1 molecule from patent US20250057862A1, “SIALIC ACID COMPOSITIONS FOR USE IN INHIBITING AND TREATING INFECTIONS IN FISH” (LifeScience AS, priority 2021, published 2025).

Data set [1] can be described thus: Example 2 mucosal health of gills and skin after sea lice challenge. The data set is classed as in vivo, Atlantic salmon. The note with it: fifteen days following challenge with salmon lice; 2 of 3 tanks. The protocol:
An experiment was conducted to determine the mucosal health status of gills, dorsal skin and foregut of Atlantic salmon smolt and postsmolt given sialic acid (NANA) treatment at a single dose (1% in feed) or a control treatment and challenged by sea lice exposure.
Atlantic salmon were reared in the flow-through system of the ILAB facility at 12 C and were reared in freshwater through smoltification to seawater in six tanks, 3 tanks per treatment. The gills and dorsal skin of the fish (n=30 per date, 5 from each replicate tank) were individually sampled on each of the following dates. The foregut of 30 fish was sampled once, while skin samples were not collected on the same date. The samples were processed (buffered formalin fixation, paraffin embedding, sectioned and stained with PAS-AB), digitally scanned and analyzed for mucous cell density (% epithelium filled with mucous cells, A), defense (mucous) cell sizes (mucous cell area, μm^2, D) and defense activity (barrier status, =(1/(A:D))×1000).
The fish were transferred to two large holding tanks and challenged with salmon lice and sampled 15 days later.

The nature of data set [2]: Growth and condition (weight, length, fitness factor) on 1% Neu5Ac feed. The data set is classed as in vivo, Atlantic salmon (Salmo salar). The following applies: postsmolt, Day 78. The protocol:
(§1) The example describes additional results obtained from feeding salmon a diet containing 1% Neu5Ac w/w. A feeding and morbidity experiment with Atlantic salmon (Salmo salar) was carried out at the Industrial Laboratory in Bergen (ILAB). The purpose of the trial was to investigate the effect of adding 1% Neu5Ac to feed on growth, certain fish health indicators, and the fish's resistance and welfare when infected with salmon lice and ILA virus, respectively. The trial included six main phases, the last two of which ran parallel with different infectious agents (FIG. 4).
(§2) Day 1-8: Acclimatization. Presmolt (approx. 40 g starting weight), freshwater phase. • Bulk weighing of all fish on day 1. • NB: All the fish received exclusively control feed during the acclimatization phase. • Day 8: First sampling. Day 9-41: Growth and preparation for smoltification, freshwater phase. • Different diets started (and continued) from day 9 onwards. • Light regime changed from 12:12 light/dark to 24 hours light on day 15. • Bulk weighing of fish on day 25. • Temperature increased from 12 to 14 degrees on day 28. • Smoltification starts in response to changed light regime and changed temperature. • Day 36: Second sampling. • Bulk weighing of fish on day 37. Day 42-50: Smoltification, transition and acclimatization to saltwater phase. • From 20 salt water from day 42, full salinity and presumed complete smoltification by day 44. • Day 50: Third sampling. • Day 51-78: Postsmolt, growth in seawater phase. • Growth on different diets, no other manipulations. • Day 78: Fourth sampling. Day 79-94: Infection test—salmon lice • A proportion of the fish were taken out of all test vessels on day 79; anesthetized, marked, collected in a common large vessel and infected with salmon lice. • Bulk weighing of the fish taken out for the lice test. • The experimental fish were then distributed according to original diet group, in two new vessels, for further observation. • Day 94: Fourth sampling, lice test completed. […]

The nature of data set [3]: Sialic acids in skin and intestinal mucus and plasma of salmon fed 1% Neu5Ac (bioavailability). The data set is classed as in vivo, Atlantic salmon (Salmo salar). The method, then: as §1
as §2, with “sampling.” for “sampling. Day 79-94: Infection test—salmon lice • A proportion of the fish were taken out of all test vessels on day 79; anesthetized, marked, collected in a common large vessel and infected with salmon lice. • Bulk weighing of the fish taken out for the lice test. • The experimental fish were then distributed according to original diet group, in two new vessels, for further observation. • Day 94: Fourth sampling, lice test completed.”
To separate life history effects from a general assessment of bioavailability, the samples from the longest continuous growth phase are first analyzed without experimental manipulations. […]

“Also recorded” adds a separate entry of the source.

`CC(=O)N[C@H]1[C@H]([C@H](O)[C@H](O)CO)OC(O)(C(=O)O)C[C@@H]1O` (stereo partly shown) [Neu5Ac, N-acetyl neuraminic acid]: the “Gill mucous cell size after challenge” value in data set [1] is “not significantly reduced”. Also, in data set [2], the “% Increase in fitness (condition) factor vs control” value is on record as 19%, the “% Increase in length vs control” value was 5% and the “% Increase in weight vs control” value is recorded as 22%. Moreover, the “Bioavailability of free Neu5Ac in feed” value in data set [3] (1% Neu5Ac in feed, salmon, listed as Free Neu5Ac) is recorded as “bioavailable; also recorded: biologically available”. Also, in data set [3] (postsmolt, Day 78), the “Free Neu5Ac in the intestinal mucosa vs control diet” value is listed as “highly significant” and the “Total Neu5Ac in the intestinal mucosa vs control diet (elevated level)” value was “weakly significant”.
